According to ChEMBL document CHEMBL1130170, “Orally active trifluoromethyl ketone inhibitors of human leukocyte elastase” (J Med Chem, 1997):
Where a SMILES comes first, the peptide text is derived from it. The star is where a group is joined. CF3 = FC(F)(F)*; Moc = COC(=O)*

Assays:
[1] = molecular target: T1, Angiotensin-converting enzyme (Oryctolagus cuniculus, UniProt P12822); assay: Binding affinity for rabbit lung Angiotensin I converting enzyme; No inhibition at 188 uM (highest concentration tested)
T1 sequence (P12822 whole entry): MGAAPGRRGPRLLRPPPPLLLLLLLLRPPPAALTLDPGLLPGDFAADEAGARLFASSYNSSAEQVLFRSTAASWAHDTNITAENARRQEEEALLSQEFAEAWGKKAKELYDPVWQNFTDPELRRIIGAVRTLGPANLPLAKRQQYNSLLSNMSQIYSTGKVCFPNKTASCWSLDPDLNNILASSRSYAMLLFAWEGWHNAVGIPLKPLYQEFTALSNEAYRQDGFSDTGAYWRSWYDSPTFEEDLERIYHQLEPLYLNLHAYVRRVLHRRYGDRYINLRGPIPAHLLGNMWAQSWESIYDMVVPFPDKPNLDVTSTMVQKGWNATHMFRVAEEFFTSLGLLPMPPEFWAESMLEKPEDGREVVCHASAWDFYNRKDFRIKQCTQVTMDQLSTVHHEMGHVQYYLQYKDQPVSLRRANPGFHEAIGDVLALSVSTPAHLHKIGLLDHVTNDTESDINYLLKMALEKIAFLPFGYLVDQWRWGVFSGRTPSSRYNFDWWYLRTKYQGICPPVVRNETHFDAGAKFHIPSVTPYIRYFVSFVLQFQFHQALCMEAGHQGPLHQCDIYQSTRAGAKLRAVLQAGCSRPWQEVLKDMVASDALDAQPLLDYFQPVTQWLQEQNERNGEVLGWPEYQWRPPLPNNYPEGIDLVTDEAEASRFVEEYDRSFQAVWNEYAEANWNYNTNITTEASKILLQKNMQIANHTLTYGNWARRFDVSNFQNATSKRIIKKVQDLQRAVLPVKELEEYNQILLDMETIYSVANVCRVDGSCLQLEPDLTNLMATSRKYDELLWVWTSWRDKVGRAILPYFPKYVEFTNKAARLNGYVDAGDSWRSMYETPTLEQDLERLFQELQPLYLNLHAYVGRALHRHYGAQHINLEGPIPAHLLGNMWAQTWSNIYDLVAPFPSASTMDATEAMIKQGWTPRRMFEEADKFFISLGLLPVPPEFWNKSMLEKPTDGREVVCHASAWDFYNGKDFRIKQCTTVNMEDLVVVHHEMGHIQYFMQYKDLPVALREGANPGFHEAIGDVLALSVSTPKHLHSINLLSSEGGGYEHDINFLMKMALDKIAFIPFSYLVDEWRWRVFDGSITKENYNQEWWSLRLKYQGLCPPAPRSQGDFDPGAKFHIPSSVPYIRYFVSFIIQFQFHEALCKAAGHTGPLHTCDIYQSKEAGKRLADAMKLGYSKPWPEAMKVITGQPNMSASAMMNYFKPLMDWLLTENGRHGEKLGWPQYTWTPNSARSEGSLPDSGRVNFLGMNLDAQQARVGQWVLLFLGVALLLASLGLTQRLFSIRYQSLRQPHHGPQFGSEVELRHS

[2] = Intravenous integrated area under the concentration vs time curve, for compound in rat plasma; type: ADME, organism-based
[3] = Half-life of compound in plasma of hamster; type: ADME, organism-based; settings: cricetinae
Kallikrein-1 = Kallikrein-1 (Homo sapiens, UniProt P06870); assay: Binding affinity for human urine kallikrein; No inhibition at 188 uM (highest concentration tested)
[4] = Half-life of compound in plasma of rat; type: ADME, organism-based
Papain = molecular target: T2, Papain (Carica papaya, UniProt P00784); assay: Binding affinity for papaya papain; No inhibition at 188 uM (highest concentration tested)
T2 sequence (P00784 whole entry): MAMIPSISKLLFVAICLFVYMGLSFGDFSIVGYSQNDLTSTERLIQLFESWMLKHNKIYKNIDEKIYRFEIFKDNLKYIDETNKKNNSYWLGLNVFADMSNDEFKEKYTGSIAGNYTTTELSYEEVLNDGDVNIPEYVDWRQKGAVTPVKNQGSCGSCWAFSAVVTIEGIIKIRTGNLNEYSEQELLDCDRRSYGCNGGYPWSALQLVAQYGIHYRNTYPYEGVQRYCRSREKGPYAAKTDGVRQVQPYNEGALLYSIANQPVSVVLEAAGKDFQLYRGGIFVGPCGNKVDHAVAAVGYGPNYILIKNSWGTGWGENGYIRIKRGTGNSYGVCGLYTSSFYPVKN

[5] = Intravenous integrated area under the concentration vs time curve, for compound in hamster plasma; type: ADME, organism-based; settings: cricetinae
Procathepsin L = Procathepsin L (Bos taurus, UniProt P25975); assay: Binding affinity for bovine spleen cathepsin L; No inhibition at 188 uM (highest concentration tested)
[6] = Maximum concentration of the unchanged compound in dog plasma, recorded in the period 0-6 hr post dose.; type: ADME, organism-based, Canis lupus familiaris
[7] = Maximum concentration of the unchanged compound in hamster plasma, recorded in the period 0-6 hr post dose.; type: ADME, organism-based; settings: cricetinae
[8] = Intravenous integrated area under the concentration vs time curve, for compound in dog plasma; type: ADME, organism-based, Canis lupus familiaris
[9] = Half-life of compound in plasma of dog; type: ADME, organism-based, Canis lupus familiaris
[10] = Oral integrated area under the concentration vs time curve, for compound in dog plasma; type: ADME, organism-based, Canis lupus familiaris
[11] = Bioavailability in hamster; type: ADME, organism-based, Cricetulus griseus; settings: chinese hamster, in vivo
Prothrombin = Prothrombin (Homo sapiens, UniProt P00734); assay: Binding affinity for human plasma thrombin; No inhibition at 188 uM (highest concentration tested); type: cell-free
[12] = Maximum concentration of the unchanged compound in rat plasma, recorded in the period 0-6 hr post dose.; type: ADME, organism-based
Cricetinae gen. sp. [13] = assay: Percent inhibition of elastase-induced lung damage by 10 mg/kg dosed orally, 30 minutes prior to the instillation of 50 ug of elastase; type: functional, Cricetulus griseus
[14] = Bioavailability in rat; type: ADME, organism-based; settings: in vivo
Cricetinae gen. sp. [15] = assay: Effective dose in the Acute Hemarrhagic Assay model after oral administration; type: functional, Cricetulus griseus
[16] = Oral integrated area under the concentration vs time curve, for compound in hamster plasma; type: ADME, organism-based; settings: cricetinae
[17] = Oral integrated area under the concentration vs time curve, for compound in rat plasma; type: ADME, organism-based
Cricetinae gen. sp. [18] = assay: Effective dose in the Acute Hemarrhagic Assay model after i.v. administration; type: functional, Cricetulus griseus; settings: iv
Plasma kallikrein = Plasma kallikrein (Homo sapiens, UniProt P03952); assay: Binding affinity for human plasma kallikrein; No inhibition at 188 uM (highest concentration tested); type: cell-free
[19] = Time of maximum concentration of compound in dog plasma.; type: ADME, organism-based, Canis lupus familiaris
[20] = Time of maximum concentration of compound in hamster plasma.; type: ADME, organism-based; settings: cricetinae

Chain of Kallikrein-1 (P06870 whole entry): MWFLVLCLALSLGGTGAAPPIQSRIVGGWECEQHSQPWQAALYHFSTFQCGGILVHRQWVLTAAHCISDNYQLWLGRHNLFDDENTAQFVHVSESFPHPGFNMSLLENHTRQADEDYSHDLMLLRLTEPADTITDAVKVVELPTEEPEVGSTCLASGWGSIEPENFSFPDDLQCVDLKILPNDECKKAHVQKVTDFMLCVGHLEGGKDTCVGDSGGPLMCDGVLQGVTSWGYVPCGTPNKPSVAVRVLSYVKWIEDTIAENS
Chain of Plasma kallikrein (P03952 20-390 limits assumed): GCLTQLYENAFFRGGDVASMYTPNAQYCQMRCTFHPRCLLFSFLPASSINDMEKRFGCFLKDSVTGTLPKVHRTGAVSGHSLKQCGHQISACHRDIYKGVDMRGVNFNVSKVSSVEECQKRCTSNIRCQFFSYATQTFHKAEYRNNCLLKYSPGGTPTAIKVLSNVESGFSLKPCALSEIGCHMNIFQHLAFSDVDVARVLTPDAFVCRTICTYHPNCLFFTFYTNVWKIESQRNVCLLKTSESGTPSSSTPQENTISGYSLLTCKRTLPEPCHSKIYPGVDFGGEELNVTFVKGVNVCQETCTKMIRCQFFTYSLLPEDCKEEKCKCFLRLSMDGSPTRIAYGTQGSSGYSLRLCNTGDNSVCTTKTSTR
Chain of Plasma kallikrein (P03952 391-638 limits assumed): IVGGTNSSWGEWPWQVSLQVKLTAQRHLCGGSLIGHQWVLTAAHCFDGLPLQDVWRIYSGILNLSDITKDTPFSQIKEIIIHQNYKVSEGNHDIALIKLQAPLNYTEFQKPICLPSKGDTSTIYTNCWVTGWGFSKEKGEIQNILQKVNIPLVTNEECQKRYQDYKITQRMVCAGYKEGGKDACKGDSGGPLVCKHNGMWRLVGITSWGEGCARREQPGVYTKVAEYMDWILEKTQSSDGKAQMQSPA
Chain of Procathepsin L (P25975 whole entry): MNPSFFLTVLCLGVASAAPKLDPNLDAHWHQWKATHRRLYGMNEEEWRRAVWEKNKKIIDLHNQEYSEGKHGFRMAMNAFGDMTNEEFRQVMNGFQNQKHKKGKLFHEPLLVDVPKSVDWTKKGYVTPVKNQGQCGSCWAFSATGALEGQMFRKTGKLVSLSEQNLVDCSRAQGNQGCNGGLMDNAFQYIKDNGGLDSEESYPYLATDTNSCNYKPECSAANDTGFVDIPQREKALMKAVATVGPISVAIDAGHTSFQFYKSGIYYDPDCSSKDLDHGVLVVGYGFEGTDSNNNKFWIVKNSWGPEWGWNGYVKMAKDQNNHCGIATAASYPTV

| Compound | Ki [1] | AUC [2] [ng·h/mL] | half-life [3] [min] | Ki (Kallikrein-1) | half-life [4] [min] | Ki (Papain) | AUC [5] [ng·h/mL] | Ki (Procathepsin L) | Cmax [6] [ng/mL] | Cmax [7] [ng/mL] | AUC [8] [ng·h/mL] | half-life [9] [min] | AUC [10] [ng·h/mL] | bioavailability [11] [%] | Ki (Prothrombin) | Cmax [12] [ng/mL] | bioavailability [14] [%] | ED50 (Cricetinae gen. sp. [15]) [mg/kg] | AUC [16] [ng·h/mL] | AUC [17] [ng·h/mL] | further results |
| --- | --- | --- | --- | --- | --- | --- | --- | --- | --- | --- | --- | --- | --- | --- | --- | --- | --- | --- | --- | --- | --- |
| COC(=O)N[C@H](C(=O)N1CCC[C@H]1C(=O)N[C@H](C(=O)C(F)(F)F)C(C)C)C(C)C (Moc-Val-Pro-Val-CF3) | No inhibition | 6540 | 120 | No inhibition | 78 | No inhibition | 2890 | No inhibition | 5440 | 1460 | 9370 | 48.6 | 6540 | 75 | No inhibition | 3690 | 84 | 2 | 2160 | 5480 | inhibition in vivo at 10 mg/kg (Cricetinae gen. sp. [13]; Cricetinae gen. sp., po): 92%; ED50 (Cricetinae gen. sp. [18]): 0.51 mg/kg; Ki (Plasma kallikrein): No inhibition; Tmax [19]: 19.8 min; Tmax [20]: 15 min |
| COc1ccc(C(=O)N[C@H](C(=O)N2CCC[C@H]2C(=O)N[C@H](C(=O)C(F)(F)F)C(C)C)C(C)C)cc1 (stereo in doubt; 1k) | No inhibition | 1700 | 72 | No inhibition | 49.2 | No inhibition | 1360 | No inhibition | 382 | 373 | 3180 | 120 | 1250 | 26 | No inhibition | 972 | 82 | 4.9 | 355 | 1400 | Inhibition (Cricetinae gen. sp. [13]; 10 mg/kg): 84%; ED50 (Cricetinae gen. sp. [18]): 0.59 mg/kg; Ki (Plasma kallikrein): No inhibition; Tmax [19]: 30 min; Tmax [20]: 30 min |
